Measured values as given in ChEMBL document CHEMBL5113529, “Design, Synthesis, and Biological Evaluation of Dual-Target COX-2/CYP51 Inhibitors for the Treatment of Fungal Infectious Diseases” (J Med Chem, 2022).
In brackets after ≈: the same amount, converted by molar mass. Activity calls are given as the source filed them. The rule behind the calls is not given here.

What was measured:
[1] = species on record: Mus musculus; experiment: Immunostimulatory activity in mouse infected with Candida albicans ATCC SC5314 assessed as reduction in PD-L1 expression in spleen by western blot analysis relative to control; type: functional; set-up: scale not given: the % may be the effect or the level left
[2] = test system: Candida albicans; experiment: Antifungal activity against Candida albicans ATCC SC5314 assessed as fungal growth inhibition measured after 72 hrs by double dilution method; type: functional
[3] = species on record: Mus musculus; experiment: Immunostimulatory activity in mouse infected with Candida albicans ATCC SC5314 assessed as increase in CD8+ expression level in spleen by immunohistochemical analysis; type: functional
[4] = target: T1, Lanosterol 14-alpha demethylase (Candida albicans (strain SC5314 / ATCC MYA-2876) (Yeast), UniProt P10613); experiment: Inhibition of CYP51 in Candida albicans SC5314 using Eburicol as substrate preincubated for 20 mins followed by substrate addition and measured after 4 mins by HPLC analysis; type: single protein
T1 sequence (P10613 whole entry): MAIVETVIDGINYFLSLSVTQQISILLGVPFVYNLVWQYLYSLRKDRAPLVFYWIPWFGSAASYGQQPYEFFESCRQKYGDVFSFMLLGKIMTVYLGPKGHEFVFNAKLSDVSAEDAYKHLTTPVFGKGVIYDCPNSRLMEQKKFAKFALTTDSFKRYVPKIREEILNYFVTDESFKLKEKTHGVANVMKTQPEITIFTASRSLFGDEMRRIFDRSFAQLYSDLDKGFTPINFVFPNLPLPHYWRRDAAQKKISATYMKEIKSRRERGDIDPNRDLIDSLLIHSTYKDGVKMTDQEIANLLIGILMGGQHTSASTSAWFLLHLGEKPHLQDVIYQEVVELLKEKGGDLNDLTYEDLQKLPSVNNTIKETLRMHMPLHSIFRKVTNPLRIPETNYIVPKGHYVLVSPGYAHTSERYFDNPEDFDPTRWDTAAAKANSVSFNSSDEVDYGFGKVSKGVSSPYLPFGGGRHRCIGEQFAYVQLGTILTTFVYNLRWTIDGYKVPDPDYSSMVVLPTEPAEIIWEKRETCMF

[5] = test system: Candida albicans; experiment: Induction of mitochondrial membrane potential loss in Candida albicans ATCC SC5314 assessed as normal cells at 1 umol/ml incubated for 24 hrs by JC-1 staining based flow cytometry assay (reference value: 95.26%); type: functional; settings: dose 1 µmol/L, at 1 µM
[6] = test system: Candida tropicalis; experiment: Antifungal activity against Candida tropicalis ATCC 1369 assessed as fungal growth inhibition measured after 72 hrs by double dilution method; type: functional
[7] = test system: Candida albicans; experiment: Induction of mitochondrial membrane potential loss in Candida albicans ATCC SC5314 assessed as polarized cells at 1 umol/ml incubated for 24 hrs by JC-1 staining based flow cytometry assay (reference value: 0.69%); type: functional; settings: dose 1 µmol/L, at 1 µM
[8] = test system: Candida albicans; experiment: Antifungal activity against fluconazole -resistant Candida albicans CaR assessed as fungal growth inhibition measured after 72 hrs by double dilution method; type: functional
[9] = test system: Pichia kudriavzevii; experiment: Antifungal activity against Candida krusei ATCC 6258 assessed as fungal growth inhibition measured after 72 hrs by double dilution method; type: functional
[10] = target: T1, Lanosterol 14-alpha demethylase; experiment: Inhibition of CYP51 in Candida albicans ATCC SC5314 assessed as lanosterol level at 4 ug/ml incuabted for 48 hrs by GC-MS analysis relative to control; set-up: scale not given: the % may be the effect or the level left; settings: at 4 µg/mL
[11] = species on record: Mus musculus; experiment: Immunostimulatory activity in mouse infected with Candida albicans ATCC SC5314 assessed as increase in CD3+ expression level in spleen by immunohistochemical analysis; type: functional
[12] = test system: Candida albicans; experiment: Antifungal actvity against Candida albicans ATCC SC5314 infected in mouse assessed as reduction in fungal infection at 10 ug per 20 g, ip administered on day 2, 4, 6, 8, 10 and 12 and measured on day 14; type: functional, organism-based; settings: dose 10.0 µg, time 14.0 day
[13] = target: T1, Lanosterol 14-alpha demethylase; experiment: Inhibition of CYP51 in Candida albicans ATCC SC5314 assessed as unknown sterol level at 4 ug/ml incuabted for 48 hrs by GC-MS analysis (reference value: 2.47%); set-up: scale not given: the % may be the effect or the level left; settings: at 4 µg/mL
[14] = target: T1, Lanosterol 14-alpha demethylase; experiment: Inhibition of CYP51 in Candida albicans ATCC SC5314 assessed as ergosterol level at 4 ug/ml incuabted for 48 hrs by GC-MS analysis (reference value: 96.48%); set-up: scale not given: the % may be the effect or the level left; settings: at 4 µg/mL
[15] = test system: Candida albicans; experiment: Induction of apoptosis in Candida albicans ATCC SC5314 assessed as late apoptotic cells incuabted for 24 hrs by V-FITC/PI staining based flow cytometry analysis (reference value: 0.36%); type: functional
[16] = test system: Candida albicans; experiment: Antifungal activity against fluconazole- resistant Candida albicans 17# assessed as fungal growth inhibition measured after 72 hrs by double dilution method; type: functional
[17] = test system: Candida albicans; experiment: Induction of apoptosis in Candida albicans ATCC SC5314 assessed as necrotic cells incuabted for 24 hrs by V-FITC/PI staining based flow cytometry analysis (reference value: 1.77%); type: functional
[18] = Toxicity in mouse infected with Candida albicans assessed as AST level in plasma at 10 ug per 20 g, ip administered on day 2, 4, 6, 8, 10 and 12 and measured on day 14 (reference value: 74.9 +/- 6.7 IU/L); type: organism-based; settings: in vivo, 336 h, dose 10 µg, time 14 day
[19] = test system: Candida albicans; experiment: Antifungal activity against Candida albicans ATCC SC5314 assessed as decrease in fungal cell density measured immediately by fluorescence microscopy (reference value: 126%); type: functional; set-up: scale not given: the % may be the effect or the level left
[20] = test system: Candida albicans; experiment: Antifungal activity against Candida albicans ATCC SC5314 assessed as decrease in fungal cell density measured at 48 hrs by fluorescence microscopy (reference value: 258%); type: functional; set-up: scale not given: the % may be the effect or the level left
[21] = test system: Aspergillus fumigatus; experiment: Antifungal activity against Aspergillus fumigatus KM8001 assessed as fungal growth inhibition measured after 72 hrs by double dilution method; type: functional
[22] = target: T1, Lanosterol 14-alpha demethylase; experiment: Inhibition of CYP51 in Candida albicans ATCC SC5314 assessed as eburicol level at 4 ug/ml incuabted for 48 hrs by GC-MS analysis (reference value: 1.05%); set-up: scale not given: the % may be the effect or the level left; settings: at 4 µg/mL
[23] = test system: Candida albicans; experiment: Antifungal activity against fluconazole -resistant Candida albicans 632 assessed as fungal growth inhibition measured after 72 hrs by double dilution method; type: functional
[24] = test system: Cryptococcus neoformans; experiment: Antifungal activity against Cryptococcus neoformans ZKCC 2209 assessed as fungal growth inhibition measured after 72 hrs by double dilution method; type: functional
[25] = test system: Candida albicans; experiment: Antifungal activity against fluconazole -resistant Candida albicans 901 assessed as fungal growth inhibition measured after 72 hrs by double dilution method; type: functional
[26] = test system: Candida albicans; experiment: Induction of apoptosis in Candida albicans ATCC SC5314 assessed as normal cells incuabted for 24 hrs by V-FITC/PI staining based flow cytometry analysis (reference value: 96.78%); type: functional
[27] = Toxicity in mouse infected with Candida albicans assessed as ALT level in plasma at 10 ug per 20 g, ip administered on day 2, 4, 6, 8, 10 and 12 and measured on day 14 (reference value: 43.6 +/- 4.4 IU/L); type: organism-based; settings: in vivo, 336 h, dose 10 µg, time 14 day
[28] = test system: Candida albicans; experiment: Induction of mitochondrial membrane potential loss in Candida albicans ATCC SC5314 assessed as depolarized cells at 1 umol/ml incubated for 24 hrs by JC-1 staining based flow cytometry assay (reference value: 0.76 to 3.29%); type: functional; settings: dose 1 µmol/L, at 1 µM
[29] = Toxicity in mouse infected with Candida albicans assessed as BUN level in plasma at 10 ug per 20 g, ip administered on day 2, 4, 6, 8, 10 and 12 and measured on day 14 (reference value: 8.2 +/- 0.5 mmol/L); type: organism-based; settings: in vivo, 336 h, dose 10 µg, time 14 day
[30] = species on record: Mus musculus; experiment: Antiinflammatory activity against mouse infected with Candida albicans ATCC SC5314 assessed as reduction in COX-2 expression in spleen by Western blot analysis; type: functional; set-up: scale not given: the % may be the effect or the level left
[31] = test system: Candida albicans; experiment: Induction of apoptosis in Candida albicans ATCC SC5314 assessed as mid apoptotic cells incuabted for 24 hrs by V-FITC/PI staining based flow cytometry analysis (reference value: 1.09%); type: functional
[32] = test system: Candida albicans; experiment: Antifungal activity against fluconazole -resistant Candida albicans 904 assessed as fungal growth inhibition measured after 72 hrs by double dilution method; type: functional

| Structure (SMILES) | Activity [1] [%] | MIC50 [2] [µg/mL] | Activity [3] | IC50 [4] [nM] | Activity [5] [%] | MIC50 [6] [µg/mL] | Activity [7] [%] | MIC50 [8] [µg/mL] | MIC50 [9] [µg/mL] | Activity [10] [%] | Activity [11] | Activity [12] | Activity [13] [%] | Activity [14] [%] | Activity [15] [%] | MIC50 [16] [µg/mL] | Activity [17] [%] | Activity [18] [IU/L] | Activity [19] [%] | Activity [20] [%] | also measured |
| --- | --- | --- | --- | --- | --- | --- | --- | --- | --- | --- | --- | --- | --- | --- | --- | --- | --- | --- | --- | --- | --- |
| COc1ccc2cc([C@H](C)C(=O)NC(Cn3cncn3)C(=O)c3ccccc3)ccc2c1 (stereo partly specified) | 12.36 | 0.25 (≈ 0.583 µM) | Active | 80 | 44.19 | 0.125 (≈ 0.292 µM) | 0.81 | 1 (≈ 2.33 µM) | 0.25 (≈ 0.583 µM) | 46.09 | Active | Active | 9.61 | 8.62 | 22.73 | 1 (≈ 2.33 µM) | 11.59 | 75.1 | 115 | 62 | MIC50 [21]: 2 µg/mL (≈ 4.67 µM); Activity [22]: 35.68%; MIC50 [23]: 4 µg/mL (≈ 9.34 µM); MIC50 [24]: 0.125 µg/mL (≈ 0.292 µM); MIC50 [25]: 1 µg/mL (≈ 2.33 µM); Activity [26]: 50.92%; Activity [27]: 39.4 IU/L; Activity [28]: 3.14%; Activity [29]: 10.5 mmol/L; Activity [30]: 11.32%; Activity [31]: 14.76%; MIC50 [32]: 2 µg/mL (≈ 4.67 µM) |
| CC(C)NC(=O)[C@@H](Cn1ccnc1)NC(=O)[C@@H](C)c1cccc(C(=O)c2ccccc2)c1 | 9.84 | 0.125 (≈ 0.289 µM) | Active | 150 | 62.2 | 0.5 (≈ 1.16 µM) | 0.39 | 1 (≈ 2.31 µM) | 0.25 (≈ 0.578 µM) | 39.58 | Active | Active | 11.8 | 11.27 | 12.5 | 2 (≈ 4.62 µM) | 30.96 | 69.8 | 121 | 72 | MIC50 [21]: 2 µg/mL (≈ 4.62 µM); Activity [22]: 37.35%; MIC50 [23]: 4 µg/mL (≈ 9.25 µM); MIC50 [24]: 0.5 µg/mL (≈ 1.16 µM); MIC50 [25]: 2 µg/mL (≈ 4.62 µM); Activity [26]: 53.73%; Activity [27]: 41.2 IU/L; Activity [28]: 0.76%; Activity [29]: 12.1 mmol/L; Activity [30]: 18.41%; Activity [31]: 2.81%; MIC50 [32]: 4 µg/mL (≈ 9.25 µM) |
| OC(Cn1cncn1)(Cn1cncn1)c1ccc(F)cc1F [FLUCONAZOLE] | 31.81 | 0.5 (≈ 1.63 µM) | 2.5 | 140 | 81.14 | 0.5 (≈ 1.63 µM) | 0.39 | > 8 | 1 (≈ 3.27 µM) | 35.17 | 2.5 | Active | 11.4 | 13.19 | 1.56 | > 8 | 29.87 | 81.6 | 119 | 75 | MIC50 [21]: > 8 µg/mL; Activity [22]: 40.24%; MIC50 [23]: > 8 µg/mL; MIC50 [24]: 0.5 µg/mL (≈ 1.63 µM); MIC50 [25]: > 8 µg/mL; Activity [26]: 68.17%; Activity [27]: 37.5 IU/L; Activity [28]: 0.37%; Activity [29]: 9.7 mmol/L; Activity [30]: 47.23%; Activity [31]: 0.4%; MIC50 [32]: > 8 µg/mL |
